# From patent US4260774A, “5-Carbamoyl imidazoles” (Sumitomo Chemical Company, Limited, priority 1976, dated 1981)
# Tests used:
# [1] = test system: plaque forming cell (PFC); assay: Immunosuppressive activity: plaque forming cell (PFC) number by Cunningham method in mice injected with sheep red blood cells; format: in vivo; conditions: days 0 to 3, measured day 4
# Experimental: The immunosuppressive activities of the compounds of the present invention, Azathioprine and 6-mercaptopurine are given in the following table. After a sheep red blood cell preparation (SRBC) was injected in mice, the compounds were administered orally once a day on days 0 to 3. The plaque forming cell (PFC) number was measured on day 4 by Cunningham method. [Cunningham A. J. et al. Immunol. 14, 599 (1968)]
# [2] = in words; literature; cited from earlier work
# L5178Y cells = conditions: in words; literature; suggested due to metabolic conversion to bredinin; cited from earlier work
# Sarcoma 180 = assay: Antitumor effect on mouse experimental tumor Sarcoma 180 (solid); format: in vivo, mouse (ICR-JCL male mice); conditions: Sarcoma-180, ip, 240 h; for inhibition in vivo at 100 mg/kg: 100 mg/kg i.p.
# Experimental: ICR-JCL male mice, 5 weeks old, weighing between 23 and 26 grams were used. Each test group was composed of 5 mice. One million cells of Sarcoma 180 were injected intramusculary in hind leg. The drug was administered intrapenitoneally at day 1, 3, 5, 7 and 9. After killing the mice at day 10, tumors were removed and weighed. The tumor inhibitory ratio was calculated according to the following formula. [formula]
# mouse leukemia P388 = assay: Antitumor effect on mouse experimental tumor P388 leukemia; format: in vivo, CDF1 mouse; conditions: day 1 & 5
# Description: The antitumor activities of the compounds of the present invention were estimated according to the methods described in "Oyo-Yakuri," Vol. 14, P. 521 (in Japanese).
# animals: CDF1 mouse (6 mice/group)
# tumor: mouse leukemia P388
# inoculum size: 10^6 cells/mouse
# day of administration: day 1 & 5
# administration route: i.p.
# evaluation: median survival time
# lymphatic leukemia L1210 = conditions: in words; literature; cited from earlier work
# [3] = read-out: Inhibition Ratio (%) Sarcoma 180 (solid)
# [4] = day 1, 3, 5, 7 and 9, tumor weight day 10, read-out: Inhibition Ratio (%) Sarcoma 180 (solid)
compound,measurement,setting,value
"Sc1ncnc2nc[nH]c12 [6-Mercaptopurine, 6-mercaptopurine, reference compound]",Effects PFC/spleen × 10^-4,[1]; 25 mg/kg/day p.o.,30.78 ± 6.28 PFC/spleen × 10^-4
same,Suppression (%),[1]; 25 mg/kg/day p.o.,60.2%
NC(=O)c1nc[nH]c1O [4-carbamoylimidazolium-5-olate],immunosuppressive activity / effects,[2],immunosuppressive effects
same,growth inhibitory effects on L5178Y cells,L5178Y cells,growth inhibitory effects
"O=c1[nH]cc(F)c(=O)[nH]1 [5-Fluorouracil, reference compound]",inhibition in vivo at 30 mg/kg,Sarcoma 180; [3],66%
"Cn1cnc([N+](=O)[O-])c1Sc1ncnc2nc[nH]c12 [Azathioprine, 6-(1-methyl-4-nitro-5-imidazolyl)mercaptopurine, reference compound]",Effects PFC/spleen × 10^-4,[1]; 100 mg/kg/day p.o.,26.73 PFC/spleen × 10^-4
same,Suppression (%),[1]; 100 mg/kg/day p.o.,81.6%
NC(=O)c1[nH]cnc1OC(=O)c1ccc(Br)cc1 [5-carbamoyl-1H-imidazol-4-yl p-bromobenzoate],inhibition in vivo at 100 mg/kg,Sarcoma 180; [4],66%
NC(=O)c1[nH]cnc1OC(=O)C12CC3CC(CC(C3)C1)C2 [5-carbamoyl-1H-imidazol-4-yl 1-adamantanecarboxylate],Evaluation T/C (%) P388 (median survival time),mouse leukemia P388; 100 mg/kg i.p.,112%
same,Evaluation T/C (%) P388 (median survival time),mouse leukemia P388; 200 mg/kg i.p.,120%
same,Evaluation T/C (%) P388 (median survival time),mouse leukemia P388; 400 mg/kg i.p.,138%
same,Effects PFC/spleen × 10^-4,[1]; 25 mg/kg/day p.o.,14.19 ± 2.24 PFC/spleen × 10^-4
same,Suppression (%),[1]; 25 mg/kg/day p.o.,77.2%
same,Effects PFC/spleen × 10^-4,[1]; 100 mg/kg/day p.o.,5.19 ± 1.29 PFC/spleen × 10^-4
same,Suppression (%),[1]; 100 mg/kg/day p.o.,93.6%
same,inhibition in vivo at 50 mg/kg,"Sarcoma 180; 50 mg/kg i.p., day 1, 3, 5, 7 and 9, tumor weight day 10, read-out: Inhibition Ratio (%) Sarcoma 180 (solid)",53.9%
same,inhibition in vivo at 100 mg/kg,Sarcoma 180; [4],71.4%
same,inhibition in vivo at 200 mg/kg,"Sarcoma 180; 200 mg/kg i.p., day 1, 3, 5, 7 and 9, tumor weight day 10, read-out: Inhibition Ratio (%) Sarcoma 180 (solid)",88.8%
same,inhibition in vivo at 206 mg/kg,"Sarcoma 180; 206 mg/kg i.p., day 1, 3, 5, 7 and 9, tumor weight day 10, read-out: Inhibition Ratio (%) Sarcoma 180 (solid)",100%
"NC(=O)c1ncn([C@@H]2O[C@H](CO)[C@@H](O)[C@H]2O)c1O [bredinin, 4-carbamoyl-1-β-D-ribofuranosylimidazolium-5-olate]",immunosuppressive activity / effects,[2],has immunosuppressive activity
same,antitumor activity against lymphatic leukemia L1210,lymphatic leukemia L1210,weak antitumor activity
NC(=O)c1[nH]cnc1OC(=O)c1ccc(Cl)cc1 [5-carbamoyl-1H-imidazol-4-yl p-chlorobenzoate],Effects PFC/spleen × 10^-4,[1]; 25 mg/kg/day p.o.,22.06 ± 5.37 PFC/spleen × 10^-4
same,Suppression (%),[1]; 25 mg/kg/day p.o.,64.6%
same,inhibition in vivo at 100 mg/kg,Sarcoma 180; [4],49.1%
"CO[C@@]12[C@H](COC(N)=O)C3=C(C(=O)C(C)=C(N)C3=O)N1C[C@@H]1N[C@@H]12 [Mitomycin C, reference compound]",inhibition in vivo at 2 mg/kg,Sarcoma 180; [3],74%
"NC(=O)c1[nH]cnc1OC(=O)c1ccccc1 [5-Carbamoyl-1H-imidazole-4-yl benzoate, 5-carbamoyl-1H-imidazol-4-yl benzoate]",Effects PFC/spleen × 10^-4,[1]; 25 mg/kg/day p.o.,19.88 ± 6.06 PFC/spleen × 10^-4
same,Suppression (%),[1]; 25 mg/kg/day p.o.,68.1%
same,Effects PFC/spleen × 10^-4,[1]; 100 mg/kg/day p.o.,8.63 ± 2.61 PFC/spleen × 10^-4
same,Suppression (%),[1]; 100 mg/kg/day p.o.,89.4%
NC(=O)c1[nH]cnc1OC(=O)c1ccc(F)cc1 [5-Carbamoyl-1H-imidazol-4-yl p-fluorobenzoate],inhibition in vivo at 100 mg/kg,Sarcoma 180; [4],36%
N#Cc1cccc(C(=O)Oc2nc[nH]c2C(N)=O)c1 [5-Carbamoyl-1H-imidazol-4-yl m-cyanobenzoate],inhibition in vivo at 100 mg/kg,Sarcoma 180; [4],38.3%
Cc1ccc(C(=O)Oc2nc[nH]c2C(N)=O)cc1 [5-Carbamoyl-1H-imidazol-4-yl p-methylbenzoate],inhibition in vivo at 100 mg/kg,Sarcoma 180; [4],38.3%
"NC(=O)c1[nH]cnc1OC(=O)c1ccc2c(c1)OCO2 [5-carbamoyl-1H-imidazol-4-yl 3,4-methylenedioxybenzoate]",inhibition in vivo at 100 mg/kg,Sarcoma 180; [4],65.1%
NC(=O)c1[nH]cnc1OC(=O)c1ccc([N+](=O)[O-])cc1 [5-Carbamoyl-1H-imidazol-4-yl p-nitrobenzoate],inhibition in vivo at 100 mg/kg,Sarcoma 180; [4],44.7%
